Laboratory results published in patent US20090156467A1, “Thymic stromal lymphpoietin promoter and use therefor” (priority 2004, published 2009).

Key:
[1] = tested on: TSLP promoter (TSLP-Luc construct); test: TSLP-Luc transient transfection luciferase reporter assay in LAD 2 cells; type: cell-based, human; conditions: A23187 500 ng/ml alone
Excerpt: (§1) A calcium ionophore alone was also able to stimulate TSLP promoter activity.

[2] = tested on: TA-Luc (control construct); test: TA-Luc control construct transient transfection luciferase reporter assay in LAD 2 cells; type: cell-based, human; conditions: A23187 500 ng/ml alone
Excerpt: as §1

CNc1ccc2oc(C[C@H]3O[C@@]4(CC[C@H]3C)O[C@H]([C@H](C)C(=O)c3ccc[nH]3)[C@H](C)C[C@H]4C)nc2c1C(=O)O [A23187]
F/R luciferase activity, TSLP-Luc construct [1]: 171.0 units of F/R luciferase activity
F/R luciferase activity, control construct TA-Luc [2]: 29.6 units of F/R luciferase activity
